Laboratory results reported in patent US10934523B2, “Method for culture of stem cell” (RIKEN, priority 2008, dated 2021).
Entries after “also recorded” stand apart in the source; their conditions may differ. Where two headings read alike, the source gives them in different places.

Assays:
Rx-GFP ES cells [1] = test: Differentiation into hypothalamic progenitor cells by SFEBq/gfCDM, percentage of Rx-GFP+ cells by FACS on day 7; format: cell-based, mouse; details: for Rx-GFP positivity rate recovered in the presence of insulin: LY294002 5 μM, Akt inhibitor VIII 2 μM
Protocol: Differentiation culture was performed under the same culturing conditions as Example 13 for 7 days. For analyzing the differentiated cells, an antibody against the Rx protein, which is a hypothalamic and retinal progenitor cell marker, was used. In hypothalamic progenitor cells, in addition to Rx, a protein called nestin is expressed, whereas in retinal progenitor cells, only Rx is expressed but nestin is not expressed, so that hypothalamic progenitor cells were identified by a fluorescent immunostaining method with the co-expression of Rx and nestin as an index.
Furthermore, EB5 cells wherein GFP was knocked in at the Rx gene locus (hereinafter, Rx-GFP ES cells) were prepared, and the expression of Rx-GFP was also analyzed by FACS.
(§1) Differentiation culture was performed under the same culturing conditions as Example 14 for 7 days, and the influence of the addition of insulin to the medium on the differentiation of hypothalamic progenitor cells from ES cells was analyzed by FACS using Rx-GFP ES cells. The intracellular signal transduction of insulin is involved by roughly two pathways (MAPK pathway and PI3K-Akt pathway). […] LY294002, Akt inhibitor VIII, PD98059 or DMSO (vehicle control) was added on day 2 of cultivation.

Human ES cells (KhES #1) = test: Hypothalamus gene marker expression in human ES cells by modified SFEBq/gfCDM (quantitative PCR, day 31); format: cell-based; details: insulin 7 μg/ml, 31 days
[2] = system: aggregate masses derived from a mouse ES cell; test: Ca++ imaging (fluo4-AM) of cerebral neurons produced by the SFEBq method; format: cell-based
Protocol: To confirm the activities and network formation of cerebral neurons produced by the SFEBq method, an analysis was performed by a Ca^++ imaging method using fluo4-AM. The method of examination was as described in the literature (Ikegaya et al, 2005, Neurosci. Res., 52, 132-138).
Aggregate masses derived from a mouse ES cell cultured by the method described in Example 1 for 18 days were further cultured on the Transwell culture insert (Corning) using a DMEM/F12 medium supplemented with N2 for 7 days (FIG. 3A, view A). Ca^++ imaging was performed at room temperature using an artificial cerebrospinal fluid.

Rx-GFP ES cells [3] = test: Dorsal/ventral hypothalamic marker expression in Rx-GFP-positive re-aggregate masses (fluorescent immunostaining, day 13); format: cell-based, mouse
Protocol: The cells of each fraction were dispensed to a non-cell-adhesive 96-well culture plate at 2500-5000 cells per well, and further cultured using a DMEM/F12 medium supplemented with 7 g/L glucose, 10% KSR and penicillin/streptomycin for 3 days. […] Three days later, half the medium was replaced with a DFNB medium (a DMEM/F12 supplemented with 7 g/l of glucose, 1×N2 supplement and 1×B27 supplement) supplemented with 10 ng/ml of CNTF, and the cells were further cultured for 3 days.
After cultivation for a total of 13 days, the re-aggregate masses were prepared as frozen sections, and the properties of the differentiated cells were analyzed by a fluorescent immunostaining method. For evaluating the effect of Shh, 30 nM Shh was added from 4 days after the start of cultivation.

Bf1/Venus-mES cells [4] = test: Layer-specific neuron differentiation of FACS-sorted, re-aggregated SFEBq cerebral progenitors after Notch inhibition (fluorescent immunostaining); format: cell-based, mouse; details: further 6 days culture
Protocol: After Bf1/Venus-mES cells were cultured for differentiation for different lengths of periods (9 days or 12 days), the resulting Venus-positive cells were separated by FACS, and rapid re-aggregation (5000 cells/well) was performed using a non-cell-adhesive 96-well culture plate. Starting on the following day, rapid induction of differentiation into neurons was performed by a treatment with the Notch inhibitor DAPT (10 μM; known to promote neuron differentiation; Nelson et al, 2007); after further differentiation culture for 6 days, layer-specific markers were analyzed by a fluorescent immunostaining method (FIG. 6, view A).

[5] = system: Mouse ES cells (EB5 and Sox1-GFP ES cells); test: Nerve differentiation of mouse ES cells by the SFEBq/gfCDM method; format: cell-based; details: 15 μg/ml in differentiation medium
Protocol: To induce the differentiation of nerves by suspension culture, ES cells were mono-dispersed using 0.25% trypsin-EDTA (Invitrogen), suspended in 150 μl of a differentiation medium to obtain a cell density of 3000 cells per well on a non-cell-adhesive 96-well culture plate (Lipidure-Coat, NOF Corp.), and incubated at 37° C., 5% CO2 for 5 days.
The differentiation medium used was Iscove's Modified Dulbecco's Medium (IMDM)/Hams F12 1:1 (Invitrogen) supplemented with 1× Chemically-defined lipid concentrate (Invitrogen), monothioglycerol (450 μM; Sigma) and bovine serum albumin (a recrystallization-purified product of >99% purity; Sigma).
Differentiation into nerve progenitor cells was analyzed as described previously (Watanabe et al., Nature Neuroscience, 2005) by FACS using Sox1-GFP ES cells that emit fluorescence when differentiated into nerves. The FACS was performed using FACSAria (Beckton Dickenson) and its data were analyzed using FACSDiva software. Nerve differentiation was also analyzed by a fluorescent immunostaining method using EB5 cells.

SFEBq culture product = test: qPCR of marker genes in the SFEBq culture product with insulin; format: cell-based, mouse; details: insulin treatment
Protocol: The expression of a marker gene is analyzed by, for example, performing quantitative PCR using the 7500 Fast Real-Time PCR System (Applied Biosystems) in accordance with the manufacturer's instructions, and normalizing the obtained data by the expression of GAPDH. The method of quantitative PCR is obvious to those skilled in the art. Alternatively, cells may be manipulated to allow the desired marker gene to be expressed as a fusion protein of a marker gene product and GFP or the like (knocking-in). It is also possible to detect the expression of the protein using an antibody specific for a marker gene product.
as §1

Bf1/Venus-mES cells [6] = test: Cerebral site-specific differentiation of re-aggregated SFEBq cerebral progenitors with secreted pattern formation factors (fluorescent immunostaining); format: cell-based, mouse; details: BMP4 0.5 ng/ml
Protocol: Bf1/Venus-mES cells were cultured for differentiation by the SFEBq method for 7 days, after which the resulting Venus-positive cells were separated by FACS, and rapid re-aggregation (5000 cells/well) was performed using a non-cell-adhesive 96-well culture plate. Secreted pattern formation factors such as Fgf 8b (50 ng/ml), the Fgf receptor inhibitor FGFR3-Fc (50 ng/ml), Wnt3a (20 ng/ml), and BMP4 (0.5 ng/ml) were added thereto, and the cells were cultured for 3 to 12 days. The expression of cerebral part-specific markers was analyzed by a fluorescent immunostain method (FIG. 7A, view A).

[7] = 7 μg/ml insulin, added on day 2
[8] = room temperature, artificial cerebrospinal fluid
[9] = 10 μM treatment after 12 days of differentiation culture

O=c1[nH]c2ccccc2n1C1CCN(Cc2ccc(-c3nc4cc5[nH]cnc5cc4nc3-c3ccccc3)cc2)CC1 [Akt inhibitor VIII, 1,3-Dihydro-1-(1-((4-(6-phenyl-1H-imidazo[4,5-g]quinoxalin-7-yl)phenyl)methyl)-4-piperidinyl)-2H-benzimidazol-2-one]
Rx-GFP positivity rate recovered in the presence of insulin (Rx-GFP ES cells [1]; [7]): ~28%
Rx expression without addition of Akt inhibitor VIII, relative to culture with 2 μM from day 9 (Human ES cells (KhES #1)): 50%
Vax1 expression without addition of Akt inhibitor VIII, relative to culture with 2 μM from day 9 (Human ES cells (KhES #1)): 25%

N#Cc1cc2[nH]c(=O)c(=O)[nH]c2cc1[N+](=O)[O-] [CNQX]
repeated synchronized Ca++ elevations over a long distance (Ca++ oscillation) [2, 8]: inhibited

CC1=C2C[C@H]3[C@@H](CC=C4C[C@@H](O)CC[C@@]43C)[C@@H]2CC[C@]12O[C@@H]1C[C@H](C)CN[C@H]1[C@H]2C [Cyclopamine, 11-Deoxojervine]
expression of dorsal/ventral hypothalamus markers compared with the Shh treatment (Rx-GFP ES cells [3]): reverse result

C[C@H](NC(=O)Cc1cc(F)cc(F)c1)C(=O)N[C@H](C(=O)OC(C)(C)C)c1ccccc1 [DAFT]
cells differentiated into Reelin-positive Cajal-Retzius cells (Bf1/Venus-mES cells [4]; 10 μM treatment after 9 days of differentiation culture): more than 50%
Reelin-positive cells (Bf1/Venus-mES cells [4]; [9]): less than 10%
cells differentiated into Ctip2/Emx1-positive cerebral cortical neurons specific for the 5th layer (Bf1/Venus-mES cells [4]; [9]): more than 60%

Cl.O=c1cc(N2CCOCC2)oc2c(-c3ccccc3)cccc12 [LY294002, 2-(4-morpholinyl)-8-phenyl-1(4H)-benzopyran-4-one hydrochloride]
Rx-GFP positivity rate recovered in the presence of insulin (Rx-GFP ES cells [1]; [7]): about 20%

COc1cccc(-c2cc(=O)c3ccccc3o2)c1N [PD98059]
antagonism of the inhibitory effect of insulin on differentiation into hypothalamic progenitor cells (Rx-GFP ES cells [1]; 7 μg/ml insulin, PD98059 0.5-10 μM, added on day 2): did not antagonize; also recorded: not noted

c1ccc2c(Oc3nc(Nc4ccc(N5CCOCC5)cc4)c4ncn(C5CCCCC5)c4n3)cccc2c1 [Purmorphamine, 2-(1-Naphthoxy)-6-(4-morpholinoanilino)-9-cyclohexylpurine]
expression of dorsal/ventral hypothalamus markers compared with the Shh treatment (Rx-GFP ES cells [3]; Cyclopamine treatment, Purmorphamine 0.5 μM in place of Shh): same effects as with Shh

NC(=O)CC[C@H](N)C(=O)O [glutamine]
Ca++ elevations synchronized or not synchronized with surrounding cells [2, 8]: enhanced

O=[Se](O)O [sodium selenite]
percentage of Rx-GFP (Rx-GFP ES cells [1]; concentration in differentiation medium increased from 0.017 mg/L to 0.025 mg/L, control 50-70%): about 80%

NC1=N[C@H](O)[C@H]2[C@H]3O[C@]4(O)O[C@@H]([C@@H](O)[C@@]2(N1)[C@@H]4O)[C@]3(O)CO [tetrodotoxin]
Ca++ elevations synchronized or not synchronized with surrounding cells [2]: inhibited
repeated synchronized Ca++ elevations over a long distance (Ca++ oscillation) [2]: inhibited

human apo-transferrin: human apo-transferrin (Sigma), medium additive
influence of addition or non-addition on the differentiation results [5]: did not influence

insulin: insulin added to serum-free medium
Rx-GFP positivity rate (Rx-GFP ES cells [1]; 7 μg/ml insulin): less than 5%
expression of Rx-GFP, time-window analysis (Rx-GFP ES cells [1]; insulin 7 μg/ml added to gfCDM on day 5 or before): suppressed
effect on Rx-GFP+%, time-window analysis (Rx-GFP ES cells [1]; insulin 7 μg/ml present after day 4): decreased substantially
effect on Rx-GFP+%, time-window analysis (Rx-GFP ES cells [1]; insulin 7 μg/ml present during the first 3 days): almost no inhibitory effect
expression of a caudal marker (SFEBq culture product): induced moderately
expression of the most rostral CNS marker (SFEBq culture product): suppressive effect

B1: Wnt3a: protein belonging to the Wnt family, Wnt signal promoter (protein, UniProt P56704 19-352, looked up)
Protein Wnt-3a: SYPIWWSLAVGPQYSSLGSQPILCASIPGLVPKQLRFCRNYVEIMPSVAEGIKIGIQECQHQFRGRRWNCTTVHDSLAIFGPVLDKATRESAFVHAIASAGVAFAVTRSCAEGTAAICGCSSRHQGSPGKGWKWGGCSEDIEFGGMVSREFADARENRPDARSAMNRHNNEAGRQAIASHMHLKCKCHGLSGSCEVKTCWWSQPDFRAIGDFLKDKYDSASEMVVEKHRESRGWVETLRPRYTYFKVPTERDLVYYEASPNFCEPNPETGSFGTRDRTCNVSSHGIDGCDLLCCGRGHNARAERRREKCRCVFHWCCYVSCQECTRVYDVHTCK
cells expressing Otx2 and Lmx1a (hem area markers) (Bf1/Venus-mES cells [6]; Wnt3a 20 ng/ml): 2-30%

B2: BMP4: protein belonging to the BMP family, BMP signal promoter (protein, UniProt P12644 293-408, looked up)
Bone morphogenetic protein 4: SPKHHSQRARKKNKNCRRHSLYVDFSDVGWNDWIVAPPGYQAFYCHGDCPFPLADHLNSTNHAIVQTLVNSVNSSIPKACCVPTELSAISMLYLDEYDKVVLKNYQEMVVEGCGCR
differentiation of choroidal tissue (TTR-positive) (Bf1/Venus-mES cells [6]): noted
